Experimental data: US20060020110A1, “Synthetic peptides that bind to the hepatitis B virus core and E antigens” (priority 2000, published 2006)

How the values were obtained:
[1] = biological target: T1, HBcAg (Hepatitis B virus genotype D subtype ayw, UniProt P03146); details: for OD at 490 nm, HBcAg binding to support-bound amino terminal deletion peptides: HBcAg added at 5 μg/ml; for OD at 405 nm to indicated antigen: HBcAg 0.2 μg/well / OD at 405 nm to indicated antigen: HBcAg 2 μg/well: support-bound peptide
Description: (§1) One approach to rational drug design involves sequential amino acid deletion of a known binding partner starting from either the amino or carboxy termini. Amino-terminal deletions of the binding partners of SEQ. ID. Nos. 5 and 17 were made and these peptide fragments were joined to a support and analyzed for the ability to bind HBcAg. […] ID. […] The amino-terminal deletions of the peptide of SEQ. ID. […] The amino-terminal deletion products of the peptide of SEQ. ID. […] ID.
To determine whether a candidate binding partner bound to HBcAg and/or HbeAg, a multimeric support-based binding assay was performed. Accordingly, synthetic peptides corresponding to the VH and VL domains of the sequenced mAbs were passively adsorbed to 96 well microplates in serial dilutions starting at 200 μg/ml. The peptide coated plates were then incubated with HBcAg and HBeAg serially diluted in PBS-GT. The amount of HBcAg and HBeAg bound by the peptides was then detected using a mAb directed to an epitope common to HBcAg and HBeAg (See Sällberg et al., J General Virology 74:1335-1340 (1993), herein expressly incorportaed by reference in its entirety) diluted 1:3000 in PBS-GT. The quantity of bound mAb was determined by addition by peroxidase labeled rabbit anti-mouse IgG (P260, Dako A S, Denmark). The plates were developed by incubation with ortho-phenylene-diamine (Sigma) and the absorbance at 492 nm was evaluated.
The converse of an aspect of this experiment was also performed. That is, various dilutions of support-bound binding partners (SEQ. ID. Nos. 5, 16, 17, 28, and 29) were contacted with 10 μg/ml of HBcAg and binding was evaluated. ID.

[2] = biological target: T1, HBcAg; details: for OD at 490 nm, bound peptide SEQ. ID. No. 74: HBcAg coated 1 μg/ml, 5 μg SEQ. ID. No. 74 + 5 μg HBcAg peptide, no inhibitor OD 1.454; for Std. Deviation from the mean: deviation of the OD from the mean OD of all peptides; for Effect on binding of peptide SEQ. ID. No. 74 to HBcAg (in words): 5 μg HBcAg peptide + 5 μg SEQ. ID. No. 74, triplicate
Procedure: In this experiment, microplates were coated overnight with 1 μg/ml HBcAg and, subsequently, a 100 μl mixture containing 5 μg of the peptide […] […] The HBcAg peptides were approximately 20 amino acids in length and corresponded to regions of HBcAg spanning amino acid residues 11-183. The experiment was performed in triplicate.

[3] = biological target: T1, HBcAg; details: peptide added prior to addition of mAb; uninhibited control mean OD 0.871
Description: as §1
Variations of the characterization assays described above include competitive binding assays. […] Initial experiments were conducted by contacting binding partner to HBcAg prior to introducing the antibody. […] ID. […] ID. […] ID. […] ID. […] ID. […] ID.

T1 sequence (P03146 whole entry, the tested form may be a part): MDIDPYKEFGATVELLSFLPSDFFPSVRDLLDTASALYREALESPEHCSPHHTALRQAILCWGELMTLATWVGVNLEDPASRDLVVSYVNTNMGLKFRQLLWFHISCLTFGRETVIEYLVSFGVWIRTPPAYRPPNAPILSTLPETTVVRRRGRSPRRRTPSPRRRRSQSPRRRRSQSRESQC

Substance	OD at 490 nm, HBcAg binding to support-bound amino terminal deletion peptides [1]	OD at 490 nm, mAb 4-2 binding to HBcAg [3]	further results
SQSVSTSSYSYMHWY [SEQ. ID. No. 57]	0.310		
WVGVNLEDPASRDLVVSYVN [SEQ. ID. No. 102]			OD at 490 nm, bound peptide SEQ. ID. No. 74 [2]: 1.411; Std. Deviation from the mean [2]: 0.744
VKLSCKASGYIFTS [SEQ. ID. No. 44]	3.703	0.152	
VSTSSYSYMHWY [SEQ. ID. No. 60]	0.369		
SVKLSCKASGYIFTS [SEQ. ID. No. 43]	3.364	0.175	
GYIFTS [SEQ. ID. No. 52]	0.414	0.903	
CKASGYIFTS [SEQ. ID. No. 48]	0.255	0.851	
AYRPPNAPILSTLPETTVVR [SEQ. ID. No. 108]			OD at 490 nm, bound peptide SEQ. ID. No. 74 [2]: 1.564; Std. Deviation from the mean [2]: 1.052
RRGRSPRRRTPSPRRRRSQS [SEQ. ID. No. 110]			OD at 490 nm, bound peptide SEQ. ID. No. 74 [2]: 0.732; Std. Deviation from the mean [2]: −0.625
ALESPEHCSPHHTALRQAIL [SEQ. ID. No. 99]			OD at 490 nm, bound peptide SEQ. ID. No. 74 [2]: 1.372; Std. Deviation from the mean [2]: 0.665
SYMHWY [SEQ. ID. No. 65]	0.218		
LSCKASGYIFTS [SEQ. ID. No. 46]	0.565	0.777	
ASGYIFTS [SEQ. ID. No. 50]	0.407	0.920	
ELTRLTSEDSAVYFCARGDY (Synthetically prepared amino acid sequence) [Peptide 9]			OD at 405 nm to indicated antigen: HBcAg 0.2 μg/well [1]: 0.195; OD at 405 nm to indicated antigen: HBcAg 2 μg/well [1]: 0.574
YSYMHWY [SEQ. ID. No. 64]	0.245		
SRDLVVSYVNTNMGLKFRQL [SEQ. ID. No. 103]			Effect on binding of peptide SEQ. ID. No. 74 to HBcAg (in words) [2]: consistently reduced the binding; OD at 490 nm, bound peptide SEQ. ID. No. 74 [2]: 0.386; Std. Deviation from the mean [2]: −1.323
TNMGLKFRQLLWFHISCLTF [SEQ. ID. No. 104]			Effect on binding of peptide SEQ. ID. No. 74 to HBcAg (in words) [2]: consistently reduced the binding; OD at 490 nm, bound peptide SEQ. ID. No. 74 [2]: 0.058; Std. Deviation from the mean [2]: −1.984
GASVKLSCKASGYIFTS [SEQ. ID. No. 41]	2.863	0.205	
KASGYIFTS [SEQ. ID. No. 49]	0.237	0.866	
RASQSVSTSSYSYMHWY [SEQ. ID. No. 55]	0.429		
ASQSVSTSSYSYMHWY [SEQ. ID. No. 56]	0.324		
CKASGYIFTSYDIDWVRQTP (Synthetically prepared amino acid sequence) [Peptide 3]			OD at 405 nm to indicated antigen: HBcAg 0.2 μg/well [1]: 0.187; OD at 405 nm to indicated antigen: HBcAg 2 μg/well [1]: 0.525
SGYIFTS [SEQ. ID. No. 51]	0.389	0.887	
QLNSLTSEDSAVYYCARGKG (Synthetically prepared amino acid sequence) [Peptide 32]			OD at 405 nm to indicated antigen: HBcAg 0.2 μg/well [1]: 0.121; OD at 405 nm to indicated antigen: HBcAg 2 μg/well [1]: 0.528
